Laboratory results as given in patent publication US20250282757A1, “ARYL ETHER-SUBSTITUTED HETEROCYCLIC COMPOUNDS AS GLP1R AGONISTS” (MINDRANK AI LTD., priority 2021, published 2025).

Biological target: GLP-1R (Homo sapiens, UniProt P43220)
Assay: Agonist activity on GLP-1R, HTRF cAMP detection in stably transfected GLP-1R/HEK293 cells
Type: cell-based
Details: for EC50: 30 min incubation; for Max activity: relative to top concentration of reference GLP-1(7-37)
Method: Detection of Agonist Activity of the Test Compounds on GLP-1R
• 1) The test compound was dissolved in DMSO and diluted 4-fold with Bravo for a total of 10 concentration gradients (the starting concentration was 1 mM). […] HBSS (10 mL) pre-warmed at 37° C. was added, mixed gently, and centrifuged at 1000 rpm for 5 minutes. The supernatant was discarded and another 10 mL of […] was added and mixed gently. […] The plate was shaken to mix at 2000 rpm for 60 seconds. • 7) The cells in the 384-well plate were incubated in CO2 cell incubator at 37° C. for 30 min. • 8) 10 μL of HTRF cAMP detection solution was added to the 384-well plate, stick with sealing film, and incubated at room temperature for 1 hour. • 9) After 1 hour of incubation, the sealing film was removed. The plate was put into the EnVision microplate reader to read the values of OD665 nm and OD615 nm.

GLP-1R, sequence (P43220 24-463): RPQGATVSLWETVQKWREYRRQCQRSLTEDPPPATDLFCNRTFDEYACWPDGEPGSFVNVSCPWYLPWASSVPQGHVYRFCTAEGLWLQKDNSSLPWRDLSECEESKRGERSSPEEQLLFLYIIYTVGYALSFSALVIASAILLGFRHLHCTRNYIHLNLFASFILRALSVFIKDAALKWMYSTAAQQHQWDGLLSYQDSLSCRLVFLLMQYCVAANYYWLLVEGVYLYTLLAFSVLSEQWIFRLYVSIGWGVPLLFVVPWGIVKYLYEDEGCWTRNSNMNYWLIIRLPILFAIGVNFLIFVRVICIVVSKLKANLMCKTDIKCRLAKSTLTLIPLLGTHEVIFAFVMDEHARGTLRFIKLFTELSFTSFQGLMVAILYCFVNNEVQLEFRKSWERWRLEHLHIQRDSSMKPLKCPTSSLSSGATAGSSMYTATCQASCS

SMILES	EC50	Max activity
CC(C)n1cncc1Cn1c(CN2CCC(Oc3cccc(COc4ccc(C#N)cc4F)c3)CC2)nc2ccc(C(=O)O)cc21 [Compound C32]	0.768 nM	114.3%
Cc1cc(C(=O)O)cc2c1nc(CN1CCC(Oc3cccc(COc4ccc(C#N)cc4F)c3)CC1)n2C[C@@H]1CCO1 [Compound C36]	3.92 nM	104.0%
CCn1cncc1Cn1c(CN2CCN(Cc3cccc(COc4ccc(C#N)cc4F)n3)CC2)nc2ccc(C(=O)O)cc21 [Compound C38, 2-((4-((6-((4-cyano-2-fluorophenoxy)methyl)pyridin-2-yl)methyl)piperazin-1-yl)methyl)-1-((1-ethyl-1H-imidazol-5-yl)methyl)-1H-benzo[d]imidazole-6-carboxylic acid]	> 100 nM	–
CCn1nccc1Cn1c(CN2CCC(Oc3cccc(COc4ccc(C#N)cc4F)n3)CC2)nc2ccc(C(=O)O)cc21 [Compound C39, 2-((4-((6-((4-cyano-2-fluorophenoxy)methyl)pyridin-2-yl)oxy)piperidin-1-yl)methyl)-1-((1-ethyl-1H-pyrazol-5-yl)methyl)-1H-benzo[d]imidazole-6-carboxylic acid]	7.93 nM	142.8%
CCn1nc(C)cc1Cn1c(CN2CCC(Oc3cccc(COc4ccc(C#N)cc4F)n3)CC2)nc2ccc(C(=O)O)cc21 [Compound C40, 2-((4-((6-((4-cyano-2-fluorophenoxy)methyl)pyridin-2-yl)oxy)piperidin-1-yl)methyl)-1-((1-ethyl-3-methyl-1H-pyrazol-5-yl)methyl)-1H-benzo[d]imidazole-6-carboxylic acid]	6.5 nM	90.7%
N#Cc1ccc(COc2cccc(Oc3cc(F)c(Cc4nc5c(F)cc(C(=O)O)cc5n4C[C@@H]4CCO4)cc3F)n2)c(F)c1 [Compound C43, (S)-2-(4-((6-((4-cyano-2-fluorobenzyl)oxy)pyridin-2-yl)oxy)-2,5-difluorobenzyl)-4-fluoro-1-(oxetan-2-ylmethyl)-1H-benzo[d]imidazole-6-carboxylic acid]	5.31 nM	88.8%
N#CCC1(Cn2c(CN3CCC(Oc4cccc(COc5ccc(Cl)cc5F)n4)CC3)nc3ccc(C(=O)O)cc32)CC1 [Compound C84, 2-((4-((6-((4-chloro-2-fluorophenoxy)methyl)pyridin-2-yl)oxy)piperidin-1-yl)methyl)-1-((1-(cyanomethyl)cyclopropyl)methyl)-1H-benzo[d]imidazole-6-carboxylic acid]	0.246 nM	136.4%
CCn1cncc1Cn1c(CN2CCC(Oc3cccc(OCc4ccc(C#N)cc4F)n3)CC2)nc2ccc(C(=O)O)cc21 [Compound S4, 2-((4-((6-((4-cyano-2-fluorobenzyl)oxy)pyridin-2-yl)oxy)piperidin-1-yl)methyl)-1-((1-ethyl-1H-imidazol-5-yl)methyl)-1H-benzo[d]imidazole-6-carboxylic acid]	0.29 nM	106.9%

Second part, the compound after the results:

EC50	Max activity	SMILES
0.068 nM	99.1%	N#Cc1ccc(OCc2cccc(OC3CCN(Cc4nc5ccc(C(=O)O)cc5n4Cc4cncn4CC4CC4)CC3)n2)c(F)c1 [Compound C33, 2-((4-((6-((4-cyano-2-fluorophenoxy)methyl)pyridin-2-yl)oxy)piperidin-1-yl)methyl)-1-((1-(cyclopropylmethyl)-1H-imidazol-5-yl)methyl)-1H-benzo[d]imidazole-6-carboxylic acid]
11 nM	113.6%	CCN1C(=O)CCC1Cn1c(CN2CCC(Oc3cccc(COc4ccc(C#N)cc4F)n3)CC2)nc2ccc(C(=O)O)cc21 (centres unmarked) [Compound C34, 2-((4-((6-((4-cyano-2-fluorophenoxy)methyl)pyridin-2-yl)oxy)piperidin-1-yl)methyl)-1-((1-ethyl-5-oxopyrrolidin-2-yl)methyl)-1H-benzo[d]imidazole-6-carboxylic acid]
> 100 nM	–	CCN1CCC[C@H]1Cn1c(CN2CCC(Oc3cccc(COc4ccc(C#N)cc4F)n3)CC2)nc2ccc(C(=O)O)cc21 [Compound C35, (S)-2-((4-((6-((4-cyano-2-fluorophenoxy)methyl)pyridin-2-yl)oxy)piperidin-1-yl)methyl)-1-((1-ethylpyrrolidin-2-yl)methyl)-1H-benzo[d]imidazole-6-carboxylic acid]
0.223 nM	121.0%	CCn1cncc1Cn1c(CN2CCC(Sc3cccc(COc4ccc(C#N)cc4F)n3)CC2)nc2ccc(C(=O)O)cc21 [Compound C37, 2-((4-((6-((4-cyano-2-fluorophenoxy)methyl)pyridin-2-yl)thio)piperidin-1-yl)methyl)-1-((1-ethyl-1H-imidazol-5-yl)methyl)-1H-benzo[d]imidazole-6-carboxylic acid]
4.16 nM	122.3%	N#Cc1ccc(OCc2cccc(SC3CCN(Cc4nc5ccc(C(=O)O)cc5n4C[C@@H]4CCO4)CC3)n2)c(F)c1 [Compound C41, (S)-2-((4-((6-((4-cyano-2-fluorophenoxy)methyl)pyridin-2-yl)thio)piperidin-1-yl)methyl)-1-(oxetan-2-ylmethyl)-1H-benzo[d]imidazole-6-carboxylic acid]
> 100 nM	–	N#Cc1ccc(OCc2cccc(OC3CCN(Cc4cc5ccc(C(=O)O)cc5n4CC4CCO4)CC3)n2)c(F)c1 (centres unmarked) [Compound C42, 2-((4-((6-((4-cyano-2-fluorophenoxy)methyl)pyridin-2-yl)oxy)piperidin-1-yl)methyl)-1-(oxetan-2-ylmethyl)-1H-indole-6-carboxylic acid]
7.48 nM	90.7%	N#Cc1ccc(OCc2cccc(OC3CCN(Cc4nc5ccc(C(=O)O)cc5n4CC4COC4)CC3)n2)c(F)c1 [Compound C82, 2-((4-((6-((4-cyano-2-fluorophenoxy)methyl)pyridin-2-yl)oxy)piperidin-1-yl)methyl)-1-(oxetan-3-ylmethyl)-1H-benzo[d]imidazole-6-carboxylic acid]
0.705 nM	111.1%	N#Cc1ccc(OCc2nc(OC3CCN(Cc4nc5ccc(C(=O)O)cc5n4C[C@@H]4CCO4)CC3)ccc2F)c(F)c1 [Compound C83, (S)-2-((4-((6-((4-cyano-2-fluorophenoxy)methyl)-5-fluoropyridin-2-yl)oxy)piperidin-1-yl)methyl)-1-(oxetan-2-ylmethyl)-1H-benzo[d]imidazole-6-carboxylic acid]
1400 nM	93.7%	N#Cc1ccc(COc2cccc(OCC3CCN(Cc4nc5ccc(C(=O)O)cc5n4C[C@@H]4CCO4)CC3)n2)c(F)c1 [Compound S1]
5.58 nM	139.9%	N#Cc1ccc(COc2cccc(OC3CCN(Cc4nc5ccc(C(=O)O)cc5n4C[C@@H]4CCO4)CC3)n2)c(F)c1 [Compound S2, (S)-2-((4-((6-((4-cyano-2-fluorobenzyl)oxy)pyridin-2-yl)oxy)piperidin-1-yl)methyl)-1-(oxetan-2-ylmethyl)-1H-benzo[d]imidazole-6-carboxylic acid]
2170 nM	70.1%	N#Cc1ccc(COc2cccc(OC3CN(Cc4nc5ccc(C(=O)O)cc5n4C[C@@H]4CCO4)C3)n2)c(F)c1 [Compound S3, (S)-2-((3-((6-((4-cyano-2-fluorobenzyl)oxy)pyridin-2-yl)oxy)azetidin-1-yl)methyl)-1-(oxetan-2-ylmethyl)-1H-benzo[d]imidazole-6-carboxylic acid]
